PubChem BioAssay (NCI)
Values after ≈ are worked out from the molar mass of the structure shown.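 How tested: cells in 96-well plates exposed to compound for 48 hours at five concentrations. The concentration for 50% growth inhibition is given as GI50. TGI: total growth inhibition.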

Tests used:
Experiment in all cases: NCI-60 cell line screen, 48 h
U251 CNS = system: U251 CNS
M14 melanoma = system: M14 melanoma
OVCAR-8 ovarian = system: OVCAR-8 ovarian
SNB-19 CNS = system: SNB-19 CNS
SN12C renal = system: SN12C renal
NCI-H460 lung = system: NCI-H460 lung
K-562 leukemia = system: K-562 leukemia
OVCAR-4 ovarian = system: OVCAR-4 ovarian
T-47D breast = system: T-47D breast
MDA-MB-231 breast = system: MDA-MB-231 breast

SMILES	TGI (U251 CNS) [µM]	TGI (M14 melanoma)	TGI (OVCAR-8 ovarian)	TGI (SNB-19 CNS)	TGI (SN12C renal)	TGI (NCI-H460 lung)	TGI (K-562 leukemia)	TGI (OVCAR-4 ovarian)	GI50 (U251 CNS) [µM]	GI50 (M14 melanoma)	GI50 (OVCAR-8 ovarian)	GI50 (SNB-19 CNS)	GI50 (SN12C renal)	GI50 (NCI-H460 lung)	GI50 (T-47D breast)	TGI (T-47D breast)	GI50 (K-562 leukemia)	GI50 (MDA-MB-231 breast)	TGI (MDA-MB-231 breast)	GI50 (OVCAR-4 ovarian) [ng/mL]
C/C(=N\NC(N)=S)c1ccc(/C(C)=N/NC(N)=S)cc1	> 100	> 100 µM	> 100 µM	> 100 µM	> 100 µM	> 100 µM	> 100 µM													
O=S(=O)(O)C(F)(F)C(F)(F)C(F)(F)C(F)(F)F	> 100	> 100 µM	> 100 µM	> 100 µM	> 100 µM	> 100 µM	> 100 µM	> 100 µM												
C/C(=N\NC(N)=S)c1ccc2c(c1)OCO2	> 100	> 100 µM	> 100 µM	> 100 µM	> 100 µM	> 100 µM	> 100 µM													
N#Cc1nc(-c2cccc(Br)c2)cc(-c2ccc(Nc3nc(N4CCCCC4)nc(N4CCCCC4)n3)cc2)c1N	3.38	7.5 µM	> 100 µM	> 100 µM	> 100 µM	3.8 µM	> 100 µM		1.72	2.84 µM	2.66 µM	6.41 µM	2.82 µM	1.85 µM	1.3 µM	4.08 µM	2.07 µM	1.56 µM	3.21 µM	
Cc1cccc(C(C)(C)C)c1NC(=O)CC1C(=O)Nc2ccccc2S1=O (stereo unspecified)	> 100	> 100 µM	> 100 µM	> 100 µM	> 100 µM	> 100 µM	> 100 µM	80.1 µM												
O=[N+]([O-])c1ccc(Cc2nc3ccccc3s2)cc1	> 100	> 100 µM	> 100 µM	> 100 µM	> 100 µM	> 100 µM	> 100 µM	> 100 µM												
N=C(c1ccccc1)N1CCCCC1	> 100	> 100 µM	> 100 µM	> 100 µM	> 100 µM	> 100 µM		> 100 µM												
CC(C)=CC(=O)Cc1nc2ccccc2[nH]c1=O	> 100	> 100 µM		> 100 µM	> 100 µM	> 100 µM	> 100 µM	> 100 µM												
OCCN(CO)CN(CN(CO)CCO)c1nc(N(CN(CO)CCO)CN(CO)CCO)nc(N(CN(CO)CCO)CN(CO)CCO)n1		2.91 ng/mL	5500 ng/mL	744 ng/mL	6.06 ng/mL	2.53 ng/mL	10.6 ng/mL	4.8 ng/mL		1.21 ng/mL	1.54 ng/mL	2.32 ng/mL	1.49 ng/mL	1.17 ng/mL	1.09 ng/mL	3.21 ng/mL	0.559 ng/mL	1.01 ng/mL	3.23 ng/mL	1.7 (≈ 2.28 nM)
COc1ccc(C2(CN(C)C)COc3cc(OC)c(OC)cc3C2=O)cc1OC (stereo unspecified)	> 100	> 100 µM	> 100 µM	> 100 µM	> 100 µM	> 100 µM	> 100 µM	> 100 µM												
CCN=C1NN=C(c2ccccc2)c2cc(Cl)ccc2N1	42.6	33.5 µM	69.4 µM	> 100 µM	88.5 µM		> 100 µM	> 100 µM												
COc1cc2c(cc1OC)-c1c(cnn1C1OC(COC(C)=O)C(OC(C)=O)C(OC(C)=O)C1OC(C)=O)CC2 (stereo unspecified)	> 100	> 100 µM	> 100 µM	> 100 µM		> 100 µM	> 100 µM	> 100 µM												
CC1(C)OC2C(CO)OC(n3ccc(=O)[nH]c3=O)C2O1 (stereo unspecified)	> 100	> 100 µM	> 100 µM	> 100 µM	> 100 µM	> 100 µM	> 100 µM									> 100 µM			> 100 µM	
N#CCCc1nc2ccc(Br)cc2c(=O)n1-c1ccc(O)c([N+](=O)[O-])c1		44.7 µM	> 100 µM		38.6 µM	66.9 µM	61.9 µM	38.8 µM												
O=C(Nc1ccc(C(F)(F)F)cc1[N+](=O)[O-])C(=O)C(C(=O)c1ccc2ccccc2c1)C1OC(=O)c2ccccc21 (stereo unspecified)	17.5	28.1 µM	19.8 µM	22.5 µM	33.5 µM	15.6 µM	47.8 µM	> 50.4 µM												
CCc1ccccc1NC(=O)CCc1nc(=S)[nH][nH]1	> 100	> 100 µM	> 100 µM	> 100 µM	> 100 µM	> 100 µM	> 100 µM	> 100 µM												
CSC(=S)N(C)c1nc(=[N+](C)C)ss1	> 100	> 100 µM	> 100 µM	> 100 µM	> 100 µM	> 100 µM	> 100 µM	> 100 µM												
Cc1ccccc1C(C#N)/C(=N/NC(=O)c1cc2ccccc2cc1O)C(=O)Nc1cccc(Cl)c1 (stereo unspecified)	> 100	> 100 µM	> 100 µM	> 100 µM	> 100 µM	> 100 µM	> 100 µM	87.7 µM												
COc1cc2c(/C=C3/C(=O)Nc4ccccc43)c(Cl)n(Cc3ccccc3)c2cc1C	> 100	> 100 µM	> 100 µM	> 100 µM	> 100 µM	> 100 µM			> 100	> 100 µM	> 100 µM	> 100 µM	> 100 µM	> 100 µM	41.9 µM	> 100 µM		> 100 µM	> 100 µM	
CCCOc1ccc(/C=C\c2cc(OC)c(OC)c(OC)c2)cc1	> 100	> 100 µM	> 100 µM	> 100 µM	> 100 µM	> 100 µM	> 100 µM	> 100 µM												
CC(=O)/C=C1/c2ccccc2N(C(C)=O)C1O (stereo unspecified)	> 100	> 100 µM	> 100 µM	> 100 µM	> 100 µM	> 100 µM	> 100 µM	> 100 µM												
CCCOc1ccc(/C=C/c2cc(OC)c(OC)c(OC)c2)cc1	> 29.6	> 100 µM	22.3 µM	> 100 µM	> 74 µM	> 32.4 µM	> 100 µM	> 72.9 µM												
Cn1c2ccccc2c2c(=O)n(CCCC(=O)NCC(=O)OC(=NC3CCCCC3)NC3CCCCC3)c3c(-c4ccccc4)nnn3c21	38.3	> 100 µM	> 100 µM		50.7 µM	> 100 µM	> 100 µM		12.4	31.2 µM	7.37 µM		19.5 µM	32 µM			23 µM	12.4 µM	37.7 µM	
